In data set [1] the test system is sigma receptor. Briefly: [3H]DTG displacement radioligand binding assay, guinea pig brain membranes.
For data set [2], the target named is T1, sigma receptor from guinea pig brain (Cavia porcellus, UniProt Q60492).
T1 construct: from tissue; host or cells: guinea pig brain membranes
The data set is described as follows: [3H]AZ-DTG binding and photoaffinity labeling of the sigma receptor. The conditions noted are these: for effect on [3H]AZ-DTG labeling of the 29 kD polypeptide: 10 uM. On the procedure: (§1) The filters were then irradiated with long-wavelength UV light for a 15 minute period. Filter-bound proteins were solubilized with 50 mM Tris pH 7.4, 0.1% sodium dodecyl sulfate. Solubilized proteins were subjected to SDS-polyacrylamide gel electrophoresis.

Data set [3] relates to rats trained to discriminate cyclazocine. The conditions noted are these: same concentrations; Holtzman, private communication; cited from earlier work.
The subject of a further data set is anxiety behavior of mice. The data set is described as follows: black:white test box (light/dark exploration) of mice.
Another data set concerns PCP receptor. Conditions: Tam, personal communication; cited from earlier work.
For a further data set, the target named is [3H]MK-801. The data set is described as follows: [3H]MK-801 displacement binding. The conditions noted are these: read-out: IC50 vs [3H]MK-801; Table II; ± s.e.m. (n).
The target of data set [4] is sigma receptor (Cavia porcellus, UniProt Q60492). Briefly: biochemical.
Data set [5] deals with sigma receptor. Briefly: [3H]DTG saturation binding / binding characteristics, guinea pig brain membranes. The conditions noted are these: for binding to sigma receptor sites (words): guinea pig brain membrane homogenates and slide-mounted rat and guinea pig brain sections. On the procedure: Values obtained were the mean of quadruplicate determinations.
Frozen guinea pig brains (Pel-Freeze, Rogers, Ariz.) were homogenized in 10 volumes (w/v) of 0.32M sucrose using a Polytron homogenizer. The homogenate was spun at 900×g for 10 minutes at 4° C. The supernatant was collected, and spun at 22,000×g for 20 minutes at 4° C. The pellet was resuspended in 10 volumes of 50 mM Tris/HCl buffer, pH 7.4, incubated at 37° C. for 30 minutes and spun again at 22,000×g for 20 minutes at 4° C. The pellet was then resuspended in 10 volumes of 50 mM Tris/HCl buffer, pH 7.4 and 10 ml aliquots of this membrane suspension were stored frozen at -70° C. until used in the binding assay.
For radioreceptor assays aliquots of the frozen membrane suspension were thawed and diluted tenfold with […] Tris/HCl buffer, pH 7.4. […] The protein concentration in the 1 ml final incubation volume was 800 ug, corresponding to 32 mg of brain tissue (original wet weight). […] After incubation for 90 minutes at room temperature the membrane suspension was rapidly filtered under vacuum through Whatman GF/B glass fiber filters using a Brandel 48 well cell harvester (Brandel, Gaithersburg, Md.). The filters were washed with 3×5 ml ice-cold […] Tris buffer (pH 7.4 at room temperature). The filters were dissolved in 10 ml each of Cytoscint (Westchem Products, San Diego, Calif.) and radioactivity was measured by liquid scintillation spectrometry at a counting efficiency of 35-50%. Saturation data were evaluated by Scatchard analysis using both the EBDA NcPherson, G. A., Computer Programs Biomed.

In data set [6] the test system is sigma site in brain sections. The data set is described as follows: receptor autoradiography of [3H]DTG binding, brain sections. Further details: species or system guinea pig and rat. Conditions: 2 nM [3H]DTG. On the procedure: Male Sprague Dawley rats (200-250 g) and NIH guinea pigs (300-350 g) were sacrificed, their brains rapidly removed and processed for receptor autoradiography according to the method of Herkenham et al. J. Neuroscience 2:1129-1149 (1982).
Incubations were terminated by 4×2 minute washes in […] Tris-HCl (pH 7.4, 4° C.) with 1 mg/ml BSA, rapidly dried under a stream of cool air and placed in x-ray cassettes with ^3 H-sensitive film (^3 H-ultrofilm, LKB). Films were developed 6-8 weeks later (D-19, Kodak).

The test system of data set [7] is social interaction of rats. Briefly: rat social interaction test. The class given is in vivo, rat (male Hooded Lister).
From the text: A second preferred animal model is the rat social interaction test described by Jones, B. J. et al., supra, wherein the time that two mice spend in social interaction is quantified. […] Both the familiarity and the light level of the test arena may be manipulated. Undrugged rats show the highest level of social interaction when the test arena is familiar and is lit by low light. Social interaction declines if the arena is unfamiliar to the rats or is lit by bright light. Anxiolytic agents prevent this decline. The overall level of motor activity may also be measured to allow detection of drug effects specific to social behaviors.
Male Hooded Lister rats (Glaxo bred, 200-250 g), were housed 5 to a cage and were kept in the laboratory environment for at least a week before testing. Rats paired in the test were taken from separate cages.
The test arena consisted of an open-topped box, 62×62×33 cm with a 7×7 matrix of infra-red photocell beams in the walls, 2.5 cm from the floor.
Testing involved placing each member of a pair of rats in opposite comers of the arena and then leaving them undisturbed for 10 min. while recording their behavior remotely on videotape. The behavioral assessments were made subsequently from the recordings. The time spent in social interaction was measured and expressed as a cumulative total for the 10 min session. The behaviors that comprised social interaction were: following with contact, sniffing (but not sniffing of the hindquarters), crawling over and under, tumbling, boxing and grooming.
For data set [8], the target named is sigma receptor from guinea pig brain. Briefly: [3H]AZ-DTG binding and photoaffinity labeling of the sigma receptor. Conditions: in the dark; brain membranes. The protocol: as §1
For data set [9], the system named is sigma receptor. The data set is described as follows: (+)[3H]3-PPP saturation binding, guinea pig brain membranes.
Method: For radioreceptor assays aliquots of the frozen membrane suspension were thawed and diluted tenfold with 50 nM Tris/HCl buffer, pH 7.4. […] The protein concentration in the 1 ml final incubation volume was 800 ug, corresponding to 32 mg of brain tissue (original wet weight). […] After incubation for 90 minutes at room temperature the membrane suspension was rapidly filtered under vacuum through Whatman GF/B glass fiber filters using a Brandel 48 well cell harvester (Brandel, Gaithersburg, Md.). […] The filters were dissolved in 10 ml each of Cytoscint (Westchem Products, San Diego, Calif.) and radioactivity was measured by liquid scintillation spectrometry at a counting efficiency of 35-50%.
Where [10] appears, read: Example 25, guinea pig brain membrane homogenates, read-out: IC50 binding values.
Where [11] appears, read: list of especially preferred compounds, read-out: IC50 (high binding to the sigma receptor).
Where [12] appears, read: read-out: IC50 vs [3H]DTG, Table II, ± s.e.m. (n).

“Also recorded” adds a separate entry of the source. Like-named read-outs stand apart in the source and are kept apart here.

T1 sequence (Q60492 whole entry): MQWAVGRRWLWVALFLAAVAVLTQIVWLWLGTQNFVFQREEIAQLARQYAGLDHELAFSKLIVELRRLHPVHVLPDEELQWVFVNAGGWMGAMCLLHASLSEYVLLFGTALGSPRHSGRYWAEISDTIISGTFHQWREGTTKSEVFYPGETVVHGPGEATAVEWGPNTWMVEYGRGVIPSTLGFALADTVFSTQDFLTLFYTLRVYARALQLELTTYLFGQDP
Chain of sigma receptor (Cavia porcellus, UniProt Q60492) (Q60492 whole entry): as above

Consider `NCCCC(=O)O` [GABA, γ-aminobutyric acid, reference compound], for which, in the data set on sigma receptor [1] (10 uM), the “displacement of [3H]DTG” value is reported as “no significant displacement”. In addition, in [2], the “effect on [3H]AZ-DTG labeling of the 29 kD polypeptide” value (“effect on [3H]AZ-DTG labeling” below) was “unaffected”.

In the case of `N=C(Nc1ccccc1)Nc1ccccc1` [DPG, N,N'-di(phenyl)guanidine], the substitution for cyclazocine entry in data set [3] was “fully substitutable for cyclazocine”.

For the molecule `Cc1ccccc1NC(=N)Nc1ccccc1C` [DTG, N,N'-di-(2-methylphenyl)guanidine], in data set [3], the substitution for cyclazocine entry is reported as “fully substitutable for cyclazocine”. In the data set with sigma receptor [1], the “in vitro [3H]DTG displacement activity” value is “found to possess the aforesaid in vitro [^3 H]DTG displacement activity”. In the data set with anxiety behavior of mice (s.c.), the anxiolytic activity result is reported as “does not exhibit anxiolytic activity”. Besides, in the data set on anxiety behavior of mice (s.c., concentrations tested), the “rears, crossings, % time in the black compartment” value is listed as “did not affect significantly”. Also, in the data set on PCP receptor, the “activity in [3H]-PCP binding assay” value was “virtually inactive”.

Turning to `NCCc1c[nH]c2ccc(O)cc12` [5-OH-tryptamine, reference compound], the “displacement of [3H]DTG” value in the data set with sigma receptor [1] (10 uM) is given as “no significant displacement”. Besides, in data set [2], the “effect on [3H]AZ-DTG labeling” value was “unaffected”.

The IC50 is the concentration needed to halve the response being measured. `Cc1cc(Br)ccc1NC(=N)NC1CCCCC1` [N-Cyclohexyl-N'-(2-methyl-4-bromophenyl)guanidine]: the “in vitro [3H]DTG displacement activity” value in the data set with sigma receptor [1] was “found to possess the aforesaid in vitro [^3 H]DTG displacement activity”. The half-maximal inhibitory concentration (IC50) at sigma receptor [1] (setting [10]) stood at 5.5 nM; on sigma receptor [1] (setting [11]) it was 5.5 nM; at sigma receptor [1] (setting [12]) it was 4.67 nM; in data set [3H]MK-801, 23900 nM.

As for `N=C(Nc1ccc2oc(=O)ccc2c1)NC12CC3CC(CC(C3)C1)C2` [N-(Adamantan-1-yl)-N'-(6-coumarinyl)-guanidine], the IC50 on sigma receptor [1] (setting [11]) is 21.9 nM; on sigma receptor [1] (setting [12]) it was 21.9 nM; in data set [3H]MK-801, above 10000 nM.

For the molecule `N=C(Nc1ccccc1I)Nc1cccc2ccccc12` [N-(1-Naphthyl)-N'-(2-iodophenyl)-guanidine], the IC50 at sigma receptor [1] (setting [11]) was determined as 40.1 nM; at sigma receptor [1] (setting [12]), 40.1 nM; in data set [3H]MK-801, 209 nM.

On to `CCCN1CCC[C@@H](c2cccc(O)c2)C1` [(-)3-PPP, reference compound], for which the concentration for half-maximal inhibition (IC50) at sigma receptor [1] (setting [10]) stood at 280 ± 21 nM; on sigma receptor [1] (read-out: IC50 vs. [3H]DTG, Table III, ± SEM, average from 2-4 separate experiments in triplicate), 280 ± 21 nM; against sigma receptor [4], 235 nM.

`[3H]c1ccc(NC(=N)Nc2ccc([3H])cc2C)c(C)c1` [[^3 H]DTG, N,N'-di-(4-[^3 H]-2-methylphenyl)-guanidine]: in the data set with sigma receptor [5], the “specific binding, % of total binding” value was 90-97%; the “binding to sigma receptor sites (words)” value was “binds specifically and with high affinity to a single class of binding sites; also recorded: bound specifically, saturably, reversibly, and with high affinity”. In the data set on sigma receptor [5] (0.9 nM [3H]DTG), this molecule had a total binding of 2700 cpm. In the data set with sigma receptor [5] (0.9 nM [3H]DTG, 10 uM DTG or 10 uM haloperidol), the nonspecific binding was 50-150 cpm. Further, the “abolition of specific binding by boiling of membranes” value in the data set on sigma receptor [5] (100° C. for 10 minutes prior to assay) is on record as 90%. Moreover, in the data set on sigma receptor [5] (after addition of 10 uM unlabeled DTG), the reversibility of binding entry was “fully reversible”. Besides, the “binding to sigma receptor sites (words)” value in the data set with sigma receptor [5] (listed as [^3 H]--DTG) was “binds reversibly, saturably, selectively and with high affinity”. Besides, the “maximum number of binding sites (Bmax)” value in the data set with sigma receptor [5] (original wet weight) turned out to be 85 pmol/g brain tissue. Also, the “time to binding equilibrium” value in the data set on sigma receptor [5] (room temperature) lay within 60 to 90 min. The “specific binding of total [3H]DTG binding” value in the data set on sigma receptor [1] is reported as above 90%. Further, in data set [6], the “distribution/density of [3H]DTG binding” value was “low density of specific binding diffusely distributed throughout the gray matter; also recorded: heterogeneous distribution of enriched binding in limbic and sensorimotor structures; also recorded: Very dense binding was seen in the choroid plexus; also recorded: very dense binding was found in the subcommissural organ; also recorded: The oculomotor nucleus, and more caudally, the trochlear nucleus were very densely labeled; also recorded: In the hindbrain the locus coeruleus was the most densely labeled nucleus”.

In the case of `CCCN1CCCC(c2cccc(O)c2)C1` (single isomer, unassigned; (+)) [(+)3-PPP, 3-(3-hydroxyphenyl)-N-(1-propyl)-piperidine, reference compound], the “effect on [3H]AZ-DTG labeling” value in [2] was “completely blocked”. Moreover, the IC50 against sigma receptor [4] came out at 33 ± 12 nM.

With `N=C(Nc1ccc(F)cc1C(F)(F)F)NC12CC3CC(CC(C3)C1)C2` [N-(Adamantan-1-yl)-N'-(2-trifluoromethyl-4-fluorophenyl)guanidine], the IC50 came out at 4 nM at sigma receptor [1] (setting [11]), 4.27 nM at sigma receptor [1] (setting [12]) and 31900 nM in data set [3H]MK-801.

As for `Cc1ccccc1NC(=N)NC12CC3CC(CC(C3)C1)C2` [AdTG, N-(Adamantan-1-yl)-N'-(2-methylphenyl)guanidine], in data set [7] (0.1 mg/kg vs 1 mg/kg diazepam), the “dose giving about the same result, relative to diazepam” value is on record as “about the same result at one-tenth the dose of diazepam”. Moreover, the “time spent in social interaction” value in data set [7] (i.p., 10 min session, n=6, P<0.001) is reported as “significantly increased social interactions”. Also, in the data set with sigma receptor [1], the “in vitro [3H]DTG displacement activity” value is “found to possess the aforesaid in vitro [^3 H]DTG displacement activity”. Further, the IC50 at sigma receptor [1] (setting [10]) was 7.6 ± 0.3 nM. Also, at sigma receptor [1] (setting [11]), the IC50 was 7.6 nM. The IC50 on sigma receptor [1] (read-out: IC50, [3H]DTG displacement in guinea-pig brain homogenates, most potent, n=6) was 2.6 ± 0.6 nM. In addition, the IC50 at sigma receptor [1] (read-out: IC50 vs [3H]DTG, Table I, guinea pig brain membranes) is 3 ± 1 nM. Besides, in the data set with anxiety behavior of mice (oral), the “numbers of line crossings and/or rears in the light compartment (vs dark)” value was “increased at the expense of those in the dark compartment” and the “proportion of time in light area / percentage of time in black compartment” value is on record as “increased significantly the proportion of time the mice spent in the larger, lighted area”. In the data set on anxiety behavior of mice (oral, 1 mg/kg), the anxiolytic activity result is “have anxiolytic activity when orally administered”. In the data set on anxiety behavior of mice (s.c.), the “latency to entering the dark compartment” value is “increased in a dose-dependent manner”; the “numbers of line crossings and/or rears in the light compartment (vs dark)” value is “increased at the expense of those in the dark compartment”; the “proportion of time spent in the lighted area” value is listed as “dose dependently increased the proportion of time the mice spent in the larger, lighted area”; the “sedation: total numbers of rears and line crossings” value is on record as “did not decrease significantly showing that the drug was not sedative at this level”.

Consider `N=C(Nc1cccc2c1CCC2)Nc1cccc2c1CCC2` [N,N'-Di-(4-indanyl)-guanidine], for which the IC50 at sigma receptor [1] (setting [11]) was found to be 28.5 nM; on sigma receptor [1] (setting [12]), 28.5 nM; in [3H]MK-801, 506 nM.

Take `N=C(Nc1cccc2ccc(=O)oc12)NC12CC3CC(CC(C3)C1)C2` [N-(Adamantan-1-yl)-N'-(8-coumarinyl)-guanidine]: the IC50 on sigma receptor [1] (setting [12]) amounted to 43.9 nM; in [3H]MK-801, 6700 nM.

The term Kd denotes the constant that tells how readily two partners part at equilibrium. Read a high Kd as lower affinity. Consider `Cc1ccccc1NC(=N)Nc1ccc(N=[N+]=[N-])cc1C` [[^3 H]AZ--DTG, [^3 H]-m-azido-1,3-di-o-tolylguanidine], for which, in [8], the Kd turned out to be 28 nM. Further, the “size of polypeptide selectively labeled” value in data set [2] (fluorography of SDS-PAGE gels after UV irradiation) worked out at 29 kD.

In the data set on sigma receptor [9], `CCCN1CCC[C@H](c2cccc(O)c2)C1` [(+)[^3 H]3-PPP, (+)[^3 H]3-(3-hydroxyphenyl)-N-(1-propyl)-piperidine] displayed a Bmax of 80 pmol/g fresh brain weight and a Kd of 30 nM.

In the case of `NCCc1ccc(O)c(O)c1` [dopamine, reference compound], the “displacement of [3H]DTG” value with sigma receptor [1] was “no significant displacement”. In data set [2], the “effect on [3H]AZ-DTG labeling” value is listed as “unaffected”.
